Several values for one entry are separate records, joined by “and”; a condition that tells them apart may be missing. Equal entries are not always repeated. Activity calls are given as the source filed them. The calls are words filed in the database; no cut-off is given here.
How the values were obtained:
Mus musculus [1] = test: Anticonvulsant activity in Kunming mouse assessed as MES-induced hind limb extension at 100 mg/kg, ip administered 0. 5 to 2 hrs before MES stimulation; type: functional, organism-based
[2] = Neurotoxicity against Kunming mouse assessed as time remained in rod at 100 mg/kg, ip administered 0.5 to 2 hrs by rotarod test; type: toxicity, organism-based; conditions: in vivo
[3] = Drug metabolism in Sprague-Dawley rat assessed as retention time by HPLC/MS analysis; type: ADME
Homo sapiens [4] = organism: Homo sapiens; test: Inhibition of human LDH1 at 0.5 mM using sodium pyruvate as substrate by UV-VIS spectrophotometry method relative to control
Homo sapiens [5] = organism: Homo sapiens; test: Inhibition of human LDH5 at 0.5 mM using sodium pyruvate as substrate by UV-VIS spectrophotometry method relative to control
Mus musculus [6] = test: Anticonvulsant activity in Kunming mouse assessed as MES-induced hind limb extension at 100 mg/kg, ip administered 0. 5 to 4 hrs before MES stimulation relative to control; type: functional
Mus musculus [7] = test: Anticonvulsant activity in ip dosed Kunming mouse assessed as MES-induced hind limb extension administered 0.5 hrs before MES stimulation; type: functional
Mus musculus [8] = test: Anticonvulsant activity in ip dosed Kunming mouse assessed as reduction in ScPTZ-induced seizure administered 0.5 hrs before ScPTZ stimulation; type: functional
Mus musculus [9] = test: […] activity in ip dosed Kunming mouse assessed as reduction in formalin-induced paw licking administered 0.5 hrs before formalin stimulation; type: functional
[10] = Neurotoxicity against ip dosed Kunming mouse assessed as time remained in rod measured at 0.5 hrs by rotarod test; type: toxicity, organism-based; conditions: in vivo
[11] = (§1) Protective index, ratio of TD50 for neurotoxicity against ip dosed Kunming mouse assessed as time remained in rod measured at 0.5 hrs by rotarod test to ED50 for anticonvulsant activity in ip dosed Kunming mouse assessed as reduction in ScPTZ-induced seizure administered 0.5 hrs before ScPTZ stimulation; type: toxicity, organism-based; conditions: in vivo, read-out: PI
[12] = as §1, with “formalin-induced paw licking” for “ScPTZ-induced seizure”, “formalin” for “ScPTZ”; type: toxicity, organism-based; conditions: in vivo, read-out: PI
Mus musculus [13] = test: Anticonvulsant activity in Kunming mouse assessed as reduction in Sc3-MP-induced clonic seizure rate at 300 mg/kg, ip administered 0.5 hrs before Sc3-MP stimulation relative to control; type: functional; set-up: scale not given: the % may be the effect or the level left
Mus musculus [14] = test: Anticonvulsant activity in Kunming mouse assessed as reduction in Sc3-MP-induced tonic seizure rate at 300 mg/kg, ip administered 0.5 hrs before Sc3-MP stimulation relative to control; type: functional; set-up: scale not given: the % may be the effect or the level left
Mus musculus [15] = test: Anticonvulsant activity in Kunming mouse assessed as MES-induced hind limb extension at 50 mg/kg, ip administered 0.5 to 4 hrs before MES stimulation relative to control; type: functional
Mus musculus [16] = test: Anticonvulsant activity in Kunming mouse assessed as reduction in ScPTZ-induced seizure at 300 mg/kg, ip administered 0.25 to 2 hrs before ScPTZ stimulation relative to control; type: functional; set-up: scale not given: the % may be the effect or the level left
Mus musculus [17] = test: Anticonvulsant activity in Kunming mouse assessed as reduction in ScPTZ-induced seizure at 100 mg/kg, ip administered 0.25 to 2 hrs before ScPTZ stimulation relative to control; type: functional; set-up: scale not given: the % may be the effect or the level left
Mus musculus [18] = test: Anticonvulsant activity in Kunming mouse assessed as reduction in ScPTZ-induced seizure at 100 mg/kg, ip administered 0.25 and 1 hrs before ScPTZ stimulation relative to control; type: functional; set-up: scale not given: the % may be the effect or the level left
Mus musculus [19] = test: Anticonvulsant activity in Kunming mouse assessed as reduction in ScPTZ-induced clonic seizure at 300 mg/kg, ip administered 0.5 hrs before ScPTZ stimulation relative to control; type: functional; set-up: scale not given: the % may be the effect or the level left
Mus musculus [20] = test: Anticonvulsant activity in Kunming mouse assessed as reduction in ScPTZ-induced clonic seizure at 100 mg/kg, ip administered 0.5 hrs before ScPTZ stimulation relative to control; type: functional; set-up: scale not given: the % may be the effect or the level left
Mus musculus [21] = test: Anticonvulsant activity in Kunming mouse assessed as reduction in ScPTZ-induced tonic seizure rate at 300 mg/kg, ip administered 0.5 hrs before ScPTZ stimulation relative to control; type: functional; set-up: scale not given: the % may be the effect or the level left
Mus musculus [22] = test: Anticonvulsant activity in Kunming mouse assessed as reduction in ScPTZ-induced tonic seizure rate at 100 mg/kg, ip administered 0.5 hrs before ScPTZ stimulation relative to control; type: functional; set-up: scale not given: the % may be the effect or the level left
Mus musculus [23] = test: Anticonvulsant activity in Kunming mouse assessed as reduction in Sc3-MP-induced seizure ip dosed measured at 0.5 hrs before Sc3-MP stimulation; type: functional
[24] = Protective index, ratio of TD50 for neurotoxicity against ip dosed Kunming mouse assessed as time remained in rod measured at 0.5 hrs by rotarod test to ED50 for anticonvulsant activity in ip dosed Kunming mouse assessed as MES-induced hind limb extension administered 0.5 hrs; type: toxicity, organism-based; conditions: in vivo, read-out: PI
[25] = as §1, with “Sc3-MP-induced” for “ScPTZ-induced”, “Sc3-MP” for “ScPTZ”; type: toxicity, organism-based; conditions: in vivo, read-out: PI
Mus musculus [26] = test: Anticonvulsant activity in Kunming mouse assessed as MES-induced hind limb extension at 100 mg/kg, ip administered 3 hrs before MES stimulation; type: functional, organism-based

SMILES	Activity (Mus musculus [1])	Activity [2]	Retention_time [3] [min]	inhibition (Homo sapiens [4])	inhibition (Homo sapiens [5])	Activity (Mus musculus [6])	further results
COc1cc(/C=C/C(=O)O)cc(OC)c1OC [SINAPIC ACID METHYL ETHER]	Active	Non-Toxic					
COc1cc(OC)c(OC)cc1/C=C/C(=O)O			79.8				
COc1cc(OC)c(OC)cc1/C=C/COC(=O)/C=C/c1cccc(Cl)c1	Active	Non-Toxic		< 5%	< 9%	25 - 100%	
COC[C@@H](NC(C)=O)C(=O)NCc1ccccc1 [LACOSAMIDE]							ED50 (Mus musculus [7]): 37.6 µmol/kg and 9.4 mg/kg; ED50 (Mus musculus [8]): > 500 mg/kg and > 2000 µmol/kg; ED50 (Mus musculus [9]): 15 mg/kg and 0.1 µmol/kg; TD50 at 0.5 h [10]: 135 µmol/kg; selectivity ratio at 0.5 h [11]: < 0.1; selectivity ratio at 0.5 h [12]: 2.2
COc1cc(OC)c(OC)cc1/C=C/COC(=O)/C=C/c1c(OC)c(OC)cc(OC)c1OC	Active	Non-Toxic		Active	Active	25 - 100%	Activity (Mus musculus [13]): 100%; Activity (Mus musculus [14]): 75%; Activity (Mus musculus [15]): 50%; Activity (Mus musculus [16]): 50%; Activity (Mus musculus [17]): 25%; Activity (Mus musculus [18]): 75%; Activity (Mus musculus [19]): 100%; Activity (Mus musculus [20]): 100%; Activity (Mus musculus [21]): 25%; Activity (Mus musculus [22]): 25%; ED50 (Mus musculus [7]): 122 µmol/kg and 57.9 mg/kg; ED50 (Mus musculus [8]): 149 mg/kg and 314 µmol/kg; ED50 (Mus musculus [23]): > 300 mg/kg and > 632 µmol/kg; ED50 (Mus musculus [9]): 50.8 mg/kg and 107 µmol/kg; TD50 at 0.5 h [10]: > 2110 µmol/kg and > 1000 mg/kg; selectivity ratio at 0.5 h [24]: > 17.3; selectivity ratio at 0.5 h [11]: 6.7; selectivity ratio at 0.5 h [25]: 5; selectivity ratio at 0.5 h [12]: 19.7
COc1cc(OC)c(OC)cc1/C=C\C(=O)O			78.7				
COc1cc(OC)c(OC)cc1/C=C/COC(=O)/C=C/c1cccc(F)c1	Active	Non-Toxic		< 5%	< 9%	25 - 100%	Activity (Mus musculus [26]): Active
COc1ccc(/C=C/C(=O)OC/C=C/c2cc(OC)c(OC)cc2OC)c(OC)c1	Active	Non-Toxic		inactive	inactive	25 - 100%	
COc1cc(OC)c(OC)cc1CCCNC(=O)/C=C/c1cc(OC)c(OC)c(OC)c1	Active	Non-Toxic		< 5%	9%	25 - 100%	
COc1cc(OC)c(OC)cc1/C=C/COC(=O)/C=C/c1ccc(C(F)(F)F)cc1	Active	Non-Toxic		< 5%	< 9%	25 - 100%	
COc1cc(OC)c(OC)cc1/C=C/COC(=O)/C=C/c1ccccc1F	Active	Non-Toxic		< 5%	< 9%	inactive	
COc1cc(OC)c(OC)c(OC)c1/C=C/C(=O)O[C@@H]1O[C@H](C(=O)O)[C@@H](O)[C@H](O)[C@H]1O			55.2				
COc1cc(OC)c(OC)cc1/C=C/C(=O)O[C@@H]1O[C@H](C(=O)O)[C@@H](O)[C@H](O)[C@H]1O			50.1				

Source: ChEMBL document CHEMBL4311969, “Polygala tenuifolia-Acori tatarinowii herbal pair as an inspiration for substituted cinnamic α-asaronol esters: Design, synthesis, anticonvulsant activity, and inhibition of lactate dehydrogenase study” (Eur J Med Chem, 2019)
